Experimental data published in the supplement of paper PMC6723410.

Assays:
GUMC-403 [1] = assay: AC50 for reduction of cell viability; higher = less potent; conditions: 48 h
GUMC-403 [2] = assay: viability at highest tested concentration (max response) relative to DMSO (% of DMSO control); higher = less cytotoxic; conditions: library / dose series: MIPE library, 11-point 1:3 dilution; top concentration 46.1 µM; 48 h
Outline: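 Viability at the highest tested concentration is given relative to vehicle control. For this, conditionally reprogrammed patient-derived GUMC-403 papilloma cells at 700/well in 1536-well plates were exposed to 23 nL of pinned compound for 48 h. Luminescence from CellTiter-Glo was read on a ViewLux and scaled between empty wells (0%) and vehicle wells (100%).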

[3] = library / dose series: MIPE library, 11-point 1:3 dilution
[4] = library / dose series: NPC library, 8-point 1:5 dilution

| Structure (SMILES) | AC50 for reduction of cell viability (GUMC-403 [1]; [3]) [µM] | viability (GUMC-403 [2]) | AC50 for reduction of cell viability (GUMC-403 [1]; [4]) [µM] |
| --- | --- | --- | --- |
| CC(C)(C)c1cnc(CSc2cnc(NC(=O)C3CCNCC3)s2)o1 | 0.469 | 24.3 |  |
| Cn1cc(CNCC2CCN(c3ncc(C(=O)NO)cn3)CC2)c2ccccc21 | 2.96 | 33.5 |  |
| NC1(C(=O)N[C@@H](CCO)c2ccc(Cl)cc2)CCN(c2ncnc3[nH]ccc23)CC1 | 16.6 | 33.6 |  |
| Cc1cc(N)c2cc(NC(=O)Nc3ccc4nc(C)cc(N)c4c3)ccc2n1.Cl.Cl |  |  | 3.76 |
| CN(C)C(=S)SC(=S)N(C)C |  |  | 5.31 |
| C=CC(=O)Nc1cccc(Oc2nc(Nc3ccc(N4CCN(C)CC4)cc3OC)ncc2Cl)c1 | 0.59 | 65.2 |  |
| CC(C)C[C@H](NC(=O)[C@H](CCc1ccccc1)NC(=O)CN1CCOCC1)C(=O)N[C@@H](Cc1ccccc1)C(=O)N[C@@H](CC(C)C)C(=O)[C@@]1(C)CO1 |  |  | 1.19 |
| [Cl-].C/[N+](C)=C1\C=C\C(C=C1)=C(/c2ccc(cc2)N(C)C)c3ccc(cc3)N(C)C |  |  | 13.3 |
| Cc1c(CN2CCN([S+](C)(=O)[O-])CC2)sc2c(N3CCOCC3)nc(-c3cnc(N)nc3)nc12 | 0.118 | 41.9 |  |
| CCCCCNC(=N)N/N=C/c1c[nH]c2ccc(OC)cc12 |  |  | 18.8 |
| C[S+](=O)([O-])N1CCN(Cc2cc3nc(-c4cccc5[nH]ncc45)nc(N4CCOCC4)c3s2)CC1 | 0.235 | 55.1 |  |
| CNC(=O)c1ccc(Nc2cc(Nc3ccccc3[S+](=O)([O-])C(C)C)c3cc[nH]c3n2)nc1 | 18.7 | 10.4 |  |
| CC#C[C@]1(O)CC[C@H]2[C@@H]/3CCC/4=C/C(=O)CCC4=C3[C@H](C[C@]12C)C5=CC=C(C=C5)N(C)C | 0.833 | 59 |  |
| C[C@@]12C(=O)OC(=O)[C@@]1(C)C1CCC2O1 | 5.9 | 21.1 |  |
| CO[C@H]1/C=C/O[C@@]2(C)Oc3c(C)c(O)c4c(O)c(c(/C=N\N5CCN(C6CCCC6)CC5)c(O)c4c3C2=O)NC(=O)/C(C)=C\C=C\[C@H](C)[C@H](O)[C@@H](C)[C@@H](O)[C@@H](C)[C@H](OC(C)=O)[C@@H]1C | 0.296 | 56 |  |
| CCN(CC)CCCC(C)Nc1c2ccc(Cl)cc2nc2ccc(OC)cc12.Cl.Cl.O.O (stereo not drawn) |  |  | 21.1 |
| CCc1c(O)cc(O)c(C(=O)c2ccc(OCCN3CCOCC3)c(OC)c2)c1CC(=O)N(CCOC)CCOC | 2.09 | 56.6 |  |
| Cc1nc(Nc2n[nH]c3c2CN(C(=O)N[C@H](CN(C)C)c2ccccc2)C3(C)C)c2sccc2n1 | 3.72 | 7.84 |  |
| O=c1[nH]c2ccccc2n1C1CCN(CCCC(c2ccc(F)cc2)c2ccc(F)cc2)CC1 |  |  | 2.66 |
| O=C(CCCN1CC=C(n2c(=O)[nH]c3ccccc32)CC1)c1ccc(F)cc1 |  |  | 18.8 |
| CN[C@@H]1C[C@H]2O[C@@](C)([C@@H]1OC)n1c3ccccc3c3c4c(c5c6ccccc6n2c5c31)C(=O)N[C@H]4O | 1.48 | 8.86 |  |
| CC(C)c1cnn2c(NCc3ccccc3)cc(N[C@@H](CO)[C@H](O)CO)nc12 | 0.372 | 19.1 |  |

| Structure (SMILES) | AC50 for reduction of cell viability (GUMC-403 [1]; [3]) [µM] | viability (GUMC-403 [2]) | AC50 for reduction of cell viability (GUMC-403 [1]; [4]) [µM] |
| --- | --- | --- | --- |
| COCCn1c2c([n+](Cc3cnccn3)c1C)C(=O)c1ccccc1C2=O | 0.187 | 5.13 |  |
| CCC[C@@H](C=O)NC(=O)[C@H](CC(C)C)NC(=O)[C@H](CC(C)C)NC(=O)OCc1ccccc1 | 14.8 | 7.94 |  |
| CCOC(=O)[C@@](C)(N)Cc1ccc(O)c(O)c1.Cl |  |  | 6.68 |
| CCc1ccc(OCc2ccccc2C(=O)Nc2ccc3nc(C)cc(N)c3c2)cc1 | 10.5 | 4.25 |  |
| C[C@H]1O[C@@H](O[C@H]2[C@@H](O)C[C@H](O[C@H]3[C@@H](O)C[C@H](O[C@H]4CC[C@@]5(C)[C@H](CC[C@@H]6[C@@H]5CC[C@]5(C)[C@@H](C7=CC(=O)OC7)CC[C@]65O)C4)O[C@@H]3C)O[C@@H]2C)C[C@H](O)[C@@H]1O |  |  | 0.237 |
| CCOc1cc2ncc(C#N)c(Nc3ccc(OCc4ccccn4)c(Cl)c3)c2cc1NC(=O)/C=C/CN(C)C | 0.0743 | 54.2 |  |
| O=C(Nc1cccc(Nc2ncc(Br)c(NCCc3cnc[nH]3)n2)c1)N1CCCC1 | 20.9 | 6.39 |  |
| C=CCNc1c(O)cc2c(O)c1C[C@@H](C)C[C@H](OC)[C@H](O)[C@@H](C)/C=C(/C)[C@H](OC(N)=O)[C@@H](OC)/C=C\C=C(\C)C(=O)N2 | 4.69 | 68.9 |  |
| Cc1nc2cnc3ccc(C#Cc4cccnc4)cc3c2n1-c1ccc(C(C)(C)C#N)cc1 | 0.0935 | 46.6 |  |
| C[S+](=O)([O-])CCNCc1ccc(-c2ccc3ncnc(Nc4ccc(OCc5cccc(F)c5)c(Cl)c4)c3c2)o1 | 10.5 | 8.12 |  |
| Cc1nc(NC(=O)N2CCC[C@H]2C(N)=O)sc1-c1csc(C(C)(C)C)n1 | 10.5 | 30.8 |  |
| COc1cc2ncnc(Nc3ccc(F)c(Cl)c3)c2cc1OCCCN1CCOCC1 |  |  | 1.19 |
| Cc1nc(Nc2ncc(C(=O)Nc3c(C)cccc3Cl)s2)cc(N2CCN(CCO)CC2)n1 |  |  | 0.0841 |
| COc1cccc2c1C(=O)c1c(O)c3c(c(O)c1C2=O)C[C@@](O)(C(=O)CO)C[C@@H]3O[C@H]1C[C@H](N)[C@H](O)[C@H](C)O1.Cl |  |  | 11.9 |
| C[C@@H]1O[C@@H](O[C@H]2C[C@@H](O)[C@]3(CO)[C@H]4[C@H](O)C[C@]5(C)[C@@H](C6=CC(=O)OC6)CC[C@]5(O)[C@@H]4CC[C@]3(O)C2)[C@H](O)[C@H](O)[C@H]1O |  |  | 0.075 |
| CO[C@@]12[C@H](COC(N)=O)C3=C(C(=O)C(C)=C(N)C3=O)N1C[C@@H]1N[C@@H]12 |  |  | 16.8 |
| CCCCCCCCCCCCCCCC[N+](C)(C)C.[Br-] |  |  | 21.1 |
| C#Cc1cccc(Nc2ncnc3cc(OCCOC)c(OCCOC)cc23)c1 |  |  | 0.106 |
| CCCCC(CC)CNC(=N)NC(=N)NCCCCCCNC(=N)NC(=N)NCC(CC)CCCC.Cl.Cl (stereo not drawn) |  |  | 2.66 |
| CC[P](CC)(CC)=[Au][S][C@@H]1O[C@H](COC(C)=O)[C@@H](OC(C)=O)[C@H](OC(C)=O)[C@H]1OC(C)=O | 9.35 |  |  |
| COc1cccc2c1C(=O)c1c(O)c3c(c(O)c1C2=O)C[C@@](O)(C(=O)CO)CC3OC1CC(N2CCOC(OC)C2)C(O)C(C)O1 (stereo partly drawn) |  |  | 0.0211 |
| CN(C)c1ccc2nc3ccc(N(C)C)cc3[s+]c2c1.[Cl-] |  |  | 26.6 |

| Structure (SMILES) | AC50 for reduction of cell viability (GUMC-403 [1]; [3]) [µM] | viability (GUMC-403 [2]) | AC50 for reduction of cell viability (GUMC-403 [1]; [4]) [µM] |
| --- | --- | --- | --- |
| C[C@H]1O[C@@H](O[C@H]2CC[C@@]3(C)[C@H](CC[C@@H]4[C@@H]3C[C@@H](O)[C@]3(C)[C@@H](C5=CC(=O)OC5)CC[C@]43O)C2)C[C@H](O)[C@@H]1O[C@H]1C[C@H](O)[C@H](O[C@H]2C[C@H](O)[C@H](O[C@@H]3O[C@H](CO)[C@@H](O)[C@H](O)[C@H]3O)[C@@H](C)O2)[C@@H](C)O1 |  |  | 0.106 |
| CCN1C(=CC=Cc2ccc3ccccc3[n+]2CC)C=Cc2ccccc21.[I-] |  |  | 2.66 |
| CCCCCCCCCCCC[N+](C)(C)CCOc1ccccc1.[Br-] |  |  | 26.6 |
| C[C@@H]1O[C@@H](O[C@@H]2C=C3CC[C@@H]4[C@H](CC[C@]5(C)[C@@H](c6ccc(=O)oc6)CC[C@]45O)[C@@]3(C)CC2)[C@H](O)[C@H](O)[C@H]1O |  |  | 0.0119 |
| Oc1c(Cl)cc(Cl)c(Cl)c1Cc1c(O)c(Cl)cc(Cl)c1Cl |  |  | 16.8 |
| CCCCCCCCCCCCCC[N+](C)(C)C.[Br-] |  |  | 26.6 |
| Cc1cc2nc3ccc(N(C)C)cc3[s+]c2cc1N.[Cl-] |  |  | 18.8 |
| N=C(N/N=C\c1ccc(Cl)cc1)N/N=C/c1ccc(Cl)cc1 |  |  | 8.41 |
| C[C@@]12C(=O)OC(=O)[C@]1(C)C1CCC2O1 |  |  | 3.35 |
| CC(O)C(=O)O.CCOc1ccc2nc3cc(N)ccc3c(N)c2c1.O |  |  | 18.8 |
| CC[n+]1c(-c2ccccc2)c2cc(N)ccc2c2ccc(N)cc21.[Br-] |  |  | 9.44 |
| C=C[C@@]1(C)CC(=O)[C@]2(O)[C@@]3(C)[C@@H](O)CCC(C)(C)[C@@H]3[C@H](O)[C@H](OC(C)=O)[C@@]2(C)O1 |  |  | 1.68 |
| COc1cccc2c1C(=O)c1c(O)c3c(c(O)c1C2=O)C[C@@](O)(C(C)=O)C[C@@H]3O[C@H]1C[C@H](N)[C@H](O)[C@H](C)O1 |  |  | 2.66 |
| CCN(CC)CCNc1ccc(CO)c2sc3ccccc3c(=O)c12 |  |  | 26.6 |
| CC[C@H](O)C(C[C@H](C)N(C)C)(c1ccccc1)c1ccccc1.Cl |  |  | 44.1 |
| C[n+]1cc2c3c(ccc2c2ccc4cc5c(cc4c21)OCO5)OCO3 |  |  | 1.3 |
| CN(C)C(=S)SSC(=S)N(C)C |  |  | 18.8 |
| Cc1cc(OCCOCC[N+](C)(C)Cc2ccccc2)ccc1C(C)(C)CC(C)(C)C.[Cl-] |  |  | 23.7 |
| O=C1NCCN1CCN1CCC(c2cn(-c3ccc(F)cc3)c3ccc(Cl)cc23)CC1 |  |  | 2.66 |
| C/C(C)=C\CNc3ncnc1c3ncn1[C@@H]2O[C@H](CO)[C@@H](O)[C@H]2O |  |  | 9.44 |
| CC(=O)Oc1ccc(C2(c3ccc(OC(C)=O)cc3)C(=O)Nc3ccccc32)cc1 |  |  | 0.841 |
